Experimental data as given in US20240316150A1, “METHOD FOR PREVENTION OR TREATMENT OF DISEASES CAUSED BY PATHOGEN-[…] PATTERN” (priority 2021, published 2024).
Where two headings read alike, the source gives them in different places. Ends that are not written are not given here.

Legend:
monocytes [1] = type: cell-based; settings: Example 26, FIG. 22
[2] = tested on: α-defensin-5 (DEFA5) produced by Paneth cells; experiment: α-defensin-5 expression in ileum, carbon tetrachloride plus LPS mice; type: in vivo, BALB/c mice; settings: LPS 0.3 mg/kg i.p. for 2 weeks
Experimental: In one experiment, adult male BALB/c mice were intraperitoneally injected with escalated dosage of carbon tetrachloride (CC14 from 1.0 to 2.5 ml/kg body weight) for 2 weeks. Then, some mice were given lipopolysaccharides (LPS, 0.3 mg/kg, i.p.) for an additional 2 weeks. […] Lower DEFA5 levels worsen gut microbiota into dysbiosis state, and conversely, increased level of endotoxin may contribute to liver inflammation, leading to tissue injury and fibrogenesis.

[3] = Sirius Red staining of liver, carbon tetrachloride plus LPS mice; type: in vivo, BALB/c mice; settings: LPS 0.3 mg/kg i.p. for 2 weeks on carbon tetrachloride injury
Experimental: In another experiment, adult male BALB/c mice were injected intraperitoneally with escalated dosage of carbon tetrachloride (CC14 from 1.0 to 2.5 ml/kg body weight) for 2 weeks. And then some mice were given lipopolysaccharides injection (LPS at 0.3 mg/kg, i.p.) for an additional 2 weeks. Under sustained injury conditions, some mice were supplemented with cholestyramine at 3% w/w in the chow for another 4 weeks. […] It is well known that hepatic injury induced activation of hepatic stellate cells (HSCs) mediate hepatic fibrosis.

type-1 collagen, α-1 = experiment: Type-1 collagen mRNA in liver, carbon tetrachloride plus LPS mice; type: in vivo, BALB/c mice; settings: LPS 0.3 mg/kg i.p. for 2 weeks on carbon tetrachloride injury
Experimental: In one experiment, adult male BALB/c mice were intraperitoneally injected with escalated dosage of carbon tetrachloride (CC14, 1.0-2.5 ml/kg body weight) for 2 weeks. Then, some adult male BALB/c mice were given additional lipopolysaccharides (LPS, 0.3 mg/kg, i.p.) for 2 weeks. At such condition, some mice were supplemented with cholestyramine at 3%w/w in the chow for 4 weeks. […] In normal liver tissues, HSCs are quiescent, featured as storing vitamin A and producing type-4 collagen and other loose extracellular matrix (ECM). The high expression of collagen and the formation of fibrotic septa are common in various liver diseases. […] Endotoxemia is common in various hepatic fibrosis and cirrhosis, caused by alcohol, drugs, viruses (such as HBV and HCV), and immune system disorders. Therefore, the current disclosure can be applied for treatment of various forms of liver fibrosis.

interleukin-1β (IL-1β) = experiment: IL-1β mRNA in liver, carbon tetrachloride plus LPS mice; type: in vivo, BALB/c mice; settings: LPS 0.3 mg/kg i.p. for 2 weeks on carbon tetrachloride injury
Experimental: In one experiment, adult male BALB/c mice were intraperitoneally injected with escalated levels of carbon tetrachloride (CC14, 1.0-2.5 ml/kg body weight) for 2 weeks. Then, some mice were given lipopolysaccharides (LPS, 0.3 mg/kg, i.p.) for an additional 2 weeks. Under the condition, some mice were supplemented with cholestyramine at 3 w/w. % in the chow for an additional 4 weeks. […] It is known that PAMPs activate many types of cells to produce interleukin-1 (IL-1), leading to fever, cytokine storms, and tissue damage. In this current disclosure, the cationic polymer in the oral administration can be used for sequestration of intestinal endotoxins, which consequently can alleviate drug-induced liver inflammation, a common mechanism of action for many types of liver injury and fibrogenesis.

monocytes [4] = type: cell-based
Muc-2 = Muc-2 mRNA in ileum (RT-qPCR), carbon tetrachloride plus LPS mice; type: in vivo, BALB/c mice; settings: LPS 0.3 mg/kg i.p. for 2 weeks
Experimental: In one experiment, adult male BALB/c mice were intraperitoneally injected with escalated dosage of carbon tetrachloride (CC14 from 1.0 to 2.5 ml/kg body weight) for an additional 2 weeks. Then, some mice were given lipopolysaccharides (LPS, 0.3 mg/kg, i.p.) for an additional 2 weeks.

occludin = experiment: Occludin mRNA in ileum (RT-qPCR), carbon tetrachloride plus LPS mice; type: in vivo, BALB/c mice; settings: LPS 0.3 mg/kg i.p. for 2 weeks
Experimental: The tight junction proteins are essential components of intestinal epithelial cells and the innate immune system. In one experiment, adult male BALB/c mice were intraperitoneally injected with carbon tetrachloride (CC14, 1.0-2.5 ml/kg body weight) for 2 weeks. Then, some mice were given lipopolysaccharides (LPS, 0.3 mg/kg, i.p.) for an additional 2 weeks.

[5] = Sirius Red staining for liver fibrosis, carbon tetrachloride mice given DEFA5; type: in vivo, BALB/c mice; settings: oral 10 mg twice a week for 8 weeks, continued carbon tetrachloride
Excerpt: Paneth cells secret innate immune substances, such as antimicrobial peptides, to maintain intestinal homeostasis. The epithelial cells of the small intestine and the innate immune substances maintain the gastrointestinal barrier function, protect against the penetration of commensal and pathogenic bacteria, and safeguard intestinal epithelial cells. The antimicrobial peptides can suppress the small intestinal overgrowth of bacteria (SIBO), a common pathologic condition for many metabolic diseases. In one experiment, adult male BALB/c mice were given intraperitoneal injections of carbon tetrachloride for 4 weeks. While continuing administration of carbon tetrachloride, some mice were orally given synthetic human α-defensin-5 (10 mg, twice a week) for an additional 8 weeks (shown in FIG. 26A). […] The mechanism of action by the DEFA5 as API can be explained in part by inhibiting PAMPs, thereby reducing liver inflammation and damage, which in turn reduces the transdifferentiation of HSC and lowers liver fibrosis score.

gut microbiota = experiment: Distribution of bacterial microbiota in feces, carbon tetrachloride mice given DEFA5; type: in vivo, BALB/c mice; settings: 10 mg twice a week for 8 weeks
Experimental: In one experiment, adult male BALB/c mice were given intraperitoneal injections of carbon tetrachloride for 4 weeks; while continuing administration of carbon tetrachloride, some mice were given the synthetic human α-defensin-5 (DEFA5) (10 mg, twice a week) for 8 weeks.

[6] = Intestinal permeability by FITC levels in bloodstream, carbon tetrachloride mice; type: in vivo, BALB/c mice; settings: 10 mg twice a week for 8 weeks, continued carbon tetrachloride
Experimental: In one experiment, adult male BALB/c mice were given intraperitoneal injections of carbon tetrachloride for 4 weeks; while continuing administration of carbon tetrachloride, some mice were given the synthetic human α-defensin-5 (DEFA5) (10 mg, twice a week) for 8 weeks. Finally, the mice were given fluorescein isothiocyanate (FITC). […] Vitamin D deficiency affects the expression of the defensins secreted by Paneth cells, resulting in small intestinal bacterial overgrowth (SIBO) and the translocation of PAMPs into the bloodstream, thereby causing chronic inflammation. Therefore, the defensins, as a therapeutic API, can treat various gastrointestinal disease and alleviate drug-induced liver fibrosis.

[7] = Bloodstream endotoxin (LAL test), carbon tetrachloride mice given DEFA5; type: in vivo, BALB/c mice; settings: 10 mg twice a week for 8 weeks, continued carbon tetrachloride
Experimental: In one experiment, adult male BALB/c mice were given intraperitoneal injections of carbon tetrachloride for 4 weeks. While continuing administration of carbon tetrachloride, some mice were given the synthetic human α-defensin-5 (DEFA5) (10 mg, twice a week) for 8 weeks.

Substance	increase of mRNA expression of IL-1B (monocytes [1])	expression levels of α-defensin-5 (DEFA5) in ileum tissue [2]	drug-induced cirrhosis, fibrotic histological analysis (Sirius Red) [3]	drug-induced cirrhosis, type-I collagen mRNA (type-1 collagen, α-1)	drug-induced hepatic inflammation, mRNA expression of IL-1B in the liver (interleukin-1β (IL-1β))	increase of mRNA expression of TNF-α (monocytes [4]; Example 25, FIG. 21)	increase of mRNA expression of TNF-α (monocytes [4]; Example 27, FIG. 23)	mRNA expression of Muc-2 by Goblet cells in ileum tissue (Muc-2)	mRNA expression of occludin gene in ileum tissues (occludin)	liver fibrosis (Sirius Red) [5]	balance of intestinal bacterial microbiota (gut microbiota; continued carbon tetrachloride)	abundance of Bacteroidetes (gut microbiota; feces)	abundance of Firmicutes (gut microbiota; feces)	abundance of gamma-Proteobacteria (gut microbiota; feces)	intestinal permeability (FITC levels in bloodstream) [6]	endotoxin translocation into the bloodstream [7]
lipopolysaccharides [LPS]	about 9 times	suppressed the expression levels of α-defensin-5 (DEFA5)	exacerbate the drug-induced cirrhosis	exacerbates the drug-induced cirrhosis	exacerbates the drug-induced hepatic inflammation	about 8 times	about 10 times	reduced the mRNA expression of Muc-2	suppressed the mRNA expression of occludin gene							
α-defensin-5 (ATCYCRHGRCATRESLSGVCEISGRLYRLCC; not fully specified (bridges); also: three disulfide bonds) [DEFA5, ATCYCRHGRCATRESLSGVCEISGRLYRLCCR, three disulfide bonds; antimicrobial peptide of Paneth cells]										reduced liver fibrosis caused by liver injury	balanced the intestinal bacterial microbiota	increasing the abundance	reducing the abundance	reducing the abundance	reduce intestinal permeability	reduced endotoxin translocation into the bloodstream
